# Assay results reported in patent US7619008B2, “Xylitol for treatment of vaginal infections” (Kimberly-Clark Worldwide, Inc., priority 2004, dated 2009).
# Experiments:
# [1] = tested on: Trichomonas vaginalis; experiment: Viable cell count under microscope (Example 10); format: cell-based; settings: for Trichomonas vaginalis cell count in comparison to the control group: xylitol 0.5%, 3.0%, 5.0%
# Description: Trichomonas vaginalis was obtained from the American Type Culture Collection (ATCC #30001). The culture medium was LYI-S-2 medium (ATCC medium 2154). A sterile LYI-S-2 medium was prepared according to the manufacturer's instructions, and the pH of this medium was adjusted to pH 6.0 using 1 N HCl. Xylitol was then dissolved into the LYI-S-2 medium at concentrations of 0.5%, 3.0%, and 5.0% (wtvol). 0.9 milliliters of xylitol and culture medium (as control) were also added into different culture tubes. Thereafter, 0.1 milliliter of Trichomonas vaginalis culture suspension (concentration of 1×10^6/milliliter) was added to each of the culture tubes, and then incubated at 35° C. on a 15 degree horizontal slant. The viable Trichomonas vaginalis cells in each tube were counted under a microscope after 24 and 48 hours. The above procedure was repeated four times for each concentration of xylitol and the control.
# [2] = tested on: Gardnerella vaginalis; experiment: Average plate count after 24 hours with gel compositions and solutions (Example 8); format: cell-based; settings: 1 ml sample + 0.8 ml growth medium + 0.2 ml suspension, 24 hours at 37° C., triplicate, compositions per Table 8
# Description: Samples 1-2 were prepared by dissolving the KELCOGEL® (0.07 grams) and/or xylitol (0.44 grams) into 10 milliliters of water heated to between 70° C. to 80° C. Samples 3-4 and 6 were formed by first autoclaving a gallic acid stock solution (0.75 grams of gallic acid/20 mL water), autoclaving, and then adding 200 microliters of sterile gallic acid (0.0075 grams) to each sterile solution. Sample 5 was formed by dissolving 0.44 grams of xylitol in deionized water, followed by autoclaving. Sample 7 was formed by dissolving 0.44 grams of xylitol in sterilized growth medium for Gardnerella vaginalis and then filtering. The amount of xylitol was selected to yield isotonic solutions. After vortexing the solutions to help dissolve the solids, they were allowed to cool to room temperature.
# Upon formation, 1 milliliter of each control or sample solution was then added into a culture tube, followed by the addition of 0.8 milliliters of growth medium for Gardnerella vaginalis. To this mixture was added 0.2 milliliters of a Gardnerella vaginalis suspension (at a concentration of around 10^6 cfu/ml; diluted from 10^8 cfu/ml stock). The tubes were incubated in culture tubes at 37° C. After 24 and 48 hours, the optical density was measured for each sample at wavelengths of 450 and 595 nanometers. The 24-hr solution samples were then diluted at 0.001× and 0.0001×. 3 milliliters of growth medium were then added into the 24-hour composition samples, followed by 1 hour of shaking at 30° C. Solution was then taken from well-shaken test tubes and diluted at 0.001× and 0.0001×. “WASP” (Whitely Automatic Spiral Plate) spiral plating equipment from Don Whitely Scientific Limited was used to plate 100 microliters of the above solutions onto agar plates. The plates were incubated overnight at 35° C. The number of colonies on each plate was counted using ProtoCol® software from Synbiosis of Frederick, Md. All samples were plated in triplicate.
# [3] = tested on: Lactobacillus acidophilus; experiment: Plate count after 6 hours treatment (Example 3); format: cell-based; settings: for Plate Count, L. acidophilus: 6 hours at 37° C., n = 4
# Description: (§1) Test compounds were dissolved in culture media to form a suspension. Control or xylitol solutions (0.9 milliliters) were filtered and added into culture tubes. To these solutions, 0.1 milliliter of the Gardnerella vaginalis or Lactobacillus acidophilus suspension was then added at a concentration of around 10^6 cfu/milliliter. The culture tubes were incubated at 37° C. for 6 hours. The samples in the culture tubes were then diluted at 1, 10 and 100 times, and 100 microliters of each dilution was plated onto agar plates with WASP (Whitely Automatic Spiral Plate) spiral plating equipment from Don Whitely Scientific Limited, USA. The plates were incubated overnight at 35° C., and the numbers of colonies were counted on each plate by either ProtoCol® from Synbiosis, Frederick, Md., USA Whitely Scientific Limited, USA or by hand count. The results are shown below in Tables 2-3 and in FIG. 2,
# [4] = tested on: Gardnerella vaginalis; experiment: Plate count after 6 hours treatment (Example 3); format: cell-based; settings: for Plate Count, G. Vaginalis: 6 hours at 37° C., n = 4
# Description: as §1
# [5] = tested on: Lactobacillus acidophilus; experiment: Optical density of culture tubes (Example 2); format: cell-based; settings: 2, 4, 6 and 24 hours at 37° C., n=4
# Description: (§2) Test compounds were dissolved in culture media to form a suspension. Control or xylitol solutions (0.9 milliliters) were filtered and added into culture tubes, and to this was added 0.1 milliliter of either the Gardnerella vaginalis or Lactobacillus acidophilus suspension at a concentration of around 10^6 cfu/milliliter. The culture tubes were then incubated overnight at 37° C., whereafter the optical density was measured at 2, 4, 6 and 24 hours by pipetting 100 microliters of the control or sample solutions into 96-well microplates, and then using a ThermoMax Microplate Reader (Molecular Devices of Sunnyvale, Calif.) to obtain the optical density readings at 590 or 600 nm wavelengths. […] The inhibition effect remained evident throughout the 24-hour experimental period.
# [6] = tested on: Gardnerella vaginalis; experiment: Optical density of culture tubes (Example 2); format: cell-based; settings: 2, 4, 6 and 24 hours at 37° C., n=4
# Description: as §2
# [7] = tested on: Candida albicans; experiment: Viable cell count after 24 hours (Example 12); format: cell-based; settings: xylitol 1%, 2%, 3%, 4%, 5.0% (wt/vol) in YM medium pH 6.0, after 24 hours (FIG. 11)
# Description: A YM culture medium was prepared according to the manufacturer's instructions, and the pH of this medium was adjusted to pH 6.0 using 1N HCl. Xylitol was then dissolved into the YM medium at concentrations of 1%, 2%, 3%, 4%, and 5.0% (wt/vol). 0.9 milliliters of the culture medium were also added into a different culture tube as a control. Thereafter, 0.1 milliliter of Candida albicans culture suspension (concentration of 1×10^6/milliliter) was added to each of the culture tubes, and then incubated at 37° C. The viable Candida albicans cells in each tube were counted under a microscope after 24 hours. The above procedure was repeated four times for each concentration and the control.
# [8] = pH and gelation properties of acid-modified KELCOGEL/xylitol solutions (Example 5); format: physicochemical; settings: 4.4% (wt/vol) xylitol in 0.7% KELCOGEL solutions
# Description: Solutions were formed from xylitol and a gellan gum obtained from CP Kelco U.S., Inc. of Chicago, Ill. under the name KELCOGEL®. The solutions contained 0.7% (wt/vol) of the KELCOGEL® gum and 4.4% (wt/vol) xylitol, and were formed by dissolving 0.07 grams of the polymer powder and 0.44 grams of xylitol into 10 milliliters of water at a temperature between 70° C. to 80° C. After vortexing the solutions to help dissolve the solids, they were allowed to cool to room temperature. After cooling, the pH of the solutions was adjusted using varying amounts of either acetic acid or lactic acid.
# [9] = tested on: Gardnerella vaginalis; experiment: Optical density after 24 hours (Example 13); format: cell-based; settings: 1.0% (wt/vol) in growth medium pH 6.0, after 24 hours (FIG. 12)
# Description: A growth medium for Gardnerella vaginalis was prepared according to the manufacturer's instructions, and the pH of this medium was adjusted to pH 6.0 using 1N HCl. D-ribose (99%, Calbiochem), D-arabinose (98%, Alfa Aesar), D-xylose (Aldrich), D-lyxose (99%, Avovado), D-arabitol (97%, Alfa Aesar), adonitol (99%, Alfa Aesar), xylitol (99%, Alfa Aesar), xylitol (98%, Danisco), and xylitol (98%, Aldrich) were then dissolved into the growth medium at a concentration of 1.0% (wt/vol). 0.9 milliliters of the culture medium was also added into a different culture tube as a control. Thereafter, 0.1 milliliter of Garnerella vaginalis culture suspension (concentration of 1×10^6/milliliter) was added to each of the culture tubes, and then incubated overnight at 37° C., and the optical density was then measured after 24 hours at a wavelength of 595 nanometers. This was accomplished by pipetting 100 microliters of the control or sample solutions into 96-well microplates, and then using a ThermoMax Microplate Reader from Molecular Devices of Sunnyvale, Calif. to obtain the optical density readings. The results are depicted in FIG. 12.
# [10] = tested on: Lactobacillus acidophilus; experiment: Zone of inhibition on agar plates (Examples 1 and 4); format: cell-based; settings: 10%, tested as in Example 1
# Description: Lactobacillus acidophilus was obtained from the American Type Culture Collection (ATCC #4356). The culture medium was Lactobacilli MRS broth (ATCC medium 416).
# (§3) A microorganism culture of 10^5cfu (colony forming units)/ml in a 1× phosphate buffered saline (PBS) solution (diluted from 10× PBS LIQUID CONCENTRATE from VWR Cat. No. EM-6507] was used. One milliliter of the solution was plated on proper agar plates, depending on which microorganism was being tested. The agar plates were incubated at 35° C. for 4 hours. Three 4-millimeter diameter wells were then punched in each agar plate. A test sample of 100 microliters of 5% xylitol in sterilized 2-N-morpholino ethane sulfonic buffer (0.1 M 2-[morpholino]-ethanesulfonic acid, 0.9% NaCl, pH 4.7, prepared from BupH™ MES Buffer Saline Pack from Cat. No. 28390, Pierce Biotechnology, Inc., Rockford, Ill.) was added to one well of each plate. Into each of the other two wells were added MES buffer and 1% benzyl quats (diluted from BARDAC® 205M, from Lonza Inc., Fair Lawn, N.J.) as negative and positive controls, respectively. The plates were incubated overnight at 35° C.
# The following day, the “zone of inhibition” for each sample was then measured for Gardnerella vaginalis and Lactobacillus acidophilus activity. The “zone of inhibition” is a circular zone formed around the agar plate in which the growth of the microorganism is inhibited. […]
# [11] = tested on: Gardnerella vaginalis; experiment: as above; format: cell-based; settings: 10%, tested as in Example 1
# Description: Gardnerella vaginalis was obtained from the American Type Culture Collection (ATCC #14018). The culture medium was Casman's medium base (BD 229010) with 5% rabbit blood (ATCC medium 70).
# as §3, with “A test sample of 100 microliters of 5% xylitol in sterilized 2-N-morpholino ethane sulfonic buffer (0.1 M 2-[morpholino]-ethanesulfonic acid, 0.9% NaCl, pH 4.7, prepared from BupH™ MES Buffer Saline Pack from Cat.” left out
# The following day, the “zone of inhibition” for each sample was then measured for Gardnerella vaginalis and Lactobacillus acidophilus activity. The “zone of inhibition” is a circular zone formed around the agar plate in which the growth of the microorganism is inhibited. Absent treatment with an effective antimicrobial agent, the bacterial cells would normally produce an opaque lawn of growth. However, when growth is inhibited, a clear zone is observed. […]
compound,measurement,setting,value
"OC[C@@H](O)[C@H](O)[C@@H](O)CO [xylitol, D-xylitol]",live Trichomonas vaginalis cells,"[1]; 3% xylitol, after 48 hours",No live
same,live Trichomonas vaginalis cells,"[1]; 5% xylitol, after 48 hours",No live
same,Trichomonas vaginalis cell count in comparison to the control group,"[1]; after 24 hours, pH 6.0, 35° C. (FIG. 8)",significantly reduced
same,Trichomonas vaginalis cell count in comparison to the control group,"[1]; after 48 hours, pH 6.0, 35° C. (FIG. 9)",even more significant inhibitory effect
same,"Average Plate Count, Gardnerella vaginalis",[2],significant inhibition
same,"Average Plate Count, Gardnerella vaginalis",[2]; listed as Xylitol,1.56 × 10^4
same,inhibition of the growth of Lactobacillus acidophilus,"[3]; 1% and 5% xylitol, 6 hours",did not exhibit any significant inhibition
same,"Plate Count, L. acidophilus",[3]; 1% xylitol,3.77 ± 0.49 E+05
same,"Plate Count, L. acidophilus",[3]; 5% xylitol,3.97 ± 0.36 E+05
same,"Plate Count, G. Vaginalis",[4]; 1% xylitol,*1.24E+05
same,"Plate Count, G. Vaginalis",[4]; 2% xylitol,*1.64E+03
same,"Plate Count, G. Vaginalis",[4]; 3% xylitol,*4.63E+02
same,"Plate Count, G. Vaginalis",[4]; 4% xylitol,*1.03E+02
same,"Plate Count, G. Vaginalis",[4]; 5% xylitol,*1.98E+01
same,inhibition of Gardnerella vaginalis growth compared to the control group,"[4]; all five concentrations (1-5% xylitol), 6 hours",significant inhibition
same,"inhibition of growth of Lactobacillus acidophilus (optical density, FIG. 4)",[5],did not exhibit any significant inhibition
same,"inhibition of growth of Gardnerella vaginalis (optical density, FIG. 3)",[6],significant inhibition
same,Candida albicans cell count in comparison to the control group,[7],significantly reduced
same,effect on gelation ability of the polymer,[8],did not appear to negatively impact
same,Gardnerella vaginalis cell count in comparison to the control group (optical density 595 nanometers),[9],significantly reduced
"O=C(O)c1cc(O)c(O)c(O)c1 [Gallic acid, trihydroxybenzoic acid]","Average Plate Count, Gardnerella vaginalis",[2],3.43 × 10^4
OC[C@@H](O)[C@@H](O)[C@H](O)[C@@H](O)CO [sorbitol],"zone of inhibition, Lactobacillus acidophilus",[10],0 mm
same,"zone of inhibition, Gardnerella vaginalis",[11],0 mm
O=C[C@H](O)[C@H](O)[C@H](O)CO [D-ribose],Gardnerella vaginalis cell count in comparison to the control group (optical density 595 nanometers),[9],significantly reduced
O=C[C@H](O)[C@@H](O)[C@H](O)[C@H](O)CO [glucose],"zone of inhibition, Lactobacillus acidophilus",[10],0 mm
same,"zone of inhibition, Gardnerella vaginalis",[11],0 mm
"OC[C@@H](O)[C@H](O)[C@@H](O)CO [Xylitol in growth media, xylitol]","Average Plate Count, Gardnerella vaginalis",[2],2.40 × 10^4
